Where two headings read alike, the source gives them in different places. Where only a bound is given, the exact number is not on record here.

In assay [1] the test system is RPS6KA6. Also noted: method as in Klaeger et al. (2017). Conditions: lysate 4 cell line mix (Colo205, K-562, MV-4-11, and SK-N-BE(2)), Kinobeads y, ref Klaeger et al. (2017); cited from earlier work.
For assay [2], the target named is FES. Details: method as in Reinecke et al. (2023). The settings on record: 5 cell line mix lysate, Kinobeads ε, ref Reinecke et al. (2023), cited from earlier work.
Assay [3] relates to RPS6KA3. Also noted: method as in Reinecke et al. (2023). The settings on record: RPS6KA3, 5 cell line mix lysate, Kinobeads ε, ref Reinecke et al. (2023), cited from earlier work.
Assay [4] deals with IRAK3. The settings on record: IRAK3, 5 cell line mix lysate, Kinobeads ε, ref Reinecke et al. (2023), cited from earlier work.
Assay [5] concerns TRAF2. Details: method as in Reinecke et al. (2023). Conditions: TRAF2, 5 cell line mix lysate, Kinobeads ε, ref Reinecke et al. (2023), cited from earlier work.
In assay [6] the test system is PaTu-8988-T cells. Kind of assay: Drug combination viability screen (ATPlite, 72 h).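 On AUC: area under vehicle-normalized viability curve scaled 0 to 100 percent.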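 On Curve bottom: fraction of vehicle control viability from four-parameter log-logistic fit.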 The class given is cell-based, human. Details: AUC: unit not given beside the values. The settings on record: for EC50: Homo sapiens, PaTu 8988t. Here is the method: Cell viability was assessed by measuring ATP levels to indicate metabolic activity.
Afterward, small amounts were transferred to 384-well intermediate plates (Greiner Bio-One GmbH, Germany). […] For drug combination screening, 1000 to 5000 cells were seeded into 384-well plates (CulturPlate™, Perkin Elmer, MA, USA) using a Multidrop™ Combi Reagent Dispenser (Thermo Scientific, MA, USA) in 50 µl medium per well 24 h prior to drug treatment (seeding densities see Appendix Table S1). […] The final DMSO concentration in each well was 0.2%. […] Eight wells per plate without library drug served as negative controls, and sixteen wells per plate containing 5 µM Staurosporine served as positive controls. Control plates not containing any drug were used to correct for incubation effects, and data quality was assessed by calculation of Z-prime of positive and negative controls according to1 Z-prime=1−3SDpos+3SDneg/[…] where SD is the standard deviation. […] Dose–response curves from the experimental and hypothetical data were compared, and shifts in AUC were used to describe combination effects (AUC∆ = AUChypothetical − AUCexperimental). […] Only combinations with R^2 > 0.8 in both conditions were considered in the synergy analysis.
In general terms: ATP-based viability assays read luminescence as a measure of living cells.

The target in assay [7] is T1, GSKA (Homo sapiens, UniProt P49840).
T1 construct: endogenous in cells; host or cells: AsPC-1 lysate
The assay is described as follows: Kinobeads competition pulldown in AsPC-1 lysate. The assay is classed as binding. Conditions: read-out: KDapp. On the procedure: (§1) This was followed by incubation with Kinobeads ε (17.5 µl of settled beads) for 30 min at 4 °C to enrich kinases. […] Enriched proteins were reduced with 50 mM DTT in 8 M urea, 40 mM Tris-HCl, pH 7.4 for 30 min at room temperature, and alkylated with 55 mM chloroacetamide. After reducing the urea concentration to 1–2 M, proteins were digested with trypsin at 37 °C for 16 h. Subsequently, eluted peptides were desalted using SepPak tC18 µElution plates (Waters), freeze-dried by vacuum centrifugation, and stored at −20 °C.
(§2) For LC-MS/MS, dried peptides were reconstituted in 0.1% formic acid and analyzed on a Dionex Ultimate3000 nano HPLC (Thermo Scientific) coupled to an Orbitrap Fusion Tribrid mass spectrometer (Thermo Scientific), which was run in data-dependent mode. Peptides were first delivered to a trap column (100 µm × 2 cm, packed in-house with Reprosil-Gold C18 ODS-3 5 µm resin, Dr. Maisch, Ammerbuch) and subsequently washed with solvent A0 (0.1% formic acid in HPLC grade water) at 5 µl/min for 10 min. […] For MS2, up to 12 peptide precursors were isolated (isolation width of 1.2 Th) and subjected to HCD fragmentation using 30% normalized collision energy. […] The duration of dynamic exclusion was set to 30 s.
(§3) Oxidized methionine and N-terminal acetylation were set as variable modification, and cysteine carbamidomethylation was set as fixed modification. Label-free quantification (LFQ) and match-between-runs were enabled. All searches were performed with 1% PSM and protein FDR.
(§4) Proteins were filtered by potential contaminants, reversed hits and proteins identified only by site. Residual binding of proteins was calculated from LFQ intensities as the ratio between drug doses and vehicle. […] Only kinases quantified with at least 4 unique peptides in the vehicle experiment were considered. Potential targets were further curated through manual inspection of dose-dependent reduction in MS/MS and unique peptide counts.

In assay [8] the target is T2, GSKB (Homo sapiens, UniProt P49841).
T2 construct: endogenous in cells; host or cells: AsPC-1 lysate
Kind of assay: Kinobeads competition pulldown in AsPC-1 lysate. The class given is binding. Conditions: read-out: KDapp. Here is the method:
as §1, §2, §3, §4

Assay [9] has as its target T3, AAK1 (Homo sapiens, UniProt Q2M2I8).
T3 construct: endogenous in cells; host or cells: AsPC-1 lysate
The assay is described as follows: Kinobeads competition pulldown in AsPC-1 lysate. The assay is classed as binding. Here is the method: as §1, §2, §3, §4

For assay [10], the target named is T4, ACVR1 (Homo sapiens, UniProt Q04771).
T4 construct: endogenous in cells; host or cells: AsPC-1 lysate
Kind of assay: Kinobeads competition pulldown in AsPC-1 lysate. The class given is binding. Here is the method: as §1, §2, §3, §4

Assay [11] concerns the target T5, ACVR2 (Homo sapiens).
T5 construct: endogenous in cells; host or cells: AsPC-1 lysate
Kind of assay: Kinobeads competition pulldown in AsPC-1 lysate. The class given is binding. The settings on record: read-out: KDapp. Here is the method: as §1, §2, §3, §4

In assay [12] the target is T6, BMP2K (Homo sapiens, UniProt Q9NSY1).
T6 construct: endogenous in cells; host or cells: AsPC-1 lysate
Kind of assay: Kinobeads competition pulldown in AsPC-1 lysate. The assay is classed as binding. On the procedure: as §1, §2, §3, §4

For assay [13], the target named is T7, CSNK2A2 (Homo sapiens, UniProt P19784).
T7 construct: endogenous in cells; host or cells: AsPC-1 lysate
Kind of assay: Kinobeads competition pulldown in AsPC-1 lysate. The assay is classed as binding. On the procedure: as §1, §2, §3, §4

The target of assay [14] is all target kinases identified with the Kinobeads technology. Kind of assay: Kinobeads competition pulldown in AsPC-1 lysate, all kinases. Conditions: all targets other than ATR and ACVR2; read-out: KDapp of all other targets. The class given is binding, human. Here is the method: as §1
For LC-MS/MS, dried peptides were reconstituted in 0.1% formic acid and analyzed on a Dionex Ultimate3000 nano HPLC (Thermo Scientific) coupled to an Orbitrap Fusion Tribrid mass spectrometer (Thermo Scientific), which was run in data-dependent mode. […]
Oxidized methionine and N-terminal acetylation were set as variable modification, and cysteine carbamidomethylation was set as fixed modification. Label-free quantification (LFQ) and match-between-runs were enabled. […]
Proteins were filtered by potential contaminants, reversed hits and proteins identified only by site. Residual binding of proteins was calculated from LFQ intensities as the ratio between drug doses and vehicle. […] Only kinases quantified with at least 4 unique peptides in the vehicle experiment were considered. […]

The mark [15] stands for this setting: Kinobeads residual binding curve.

Take `C[C@]12O[C@H](C[C@]1(O)CO)n1c3ccccc3c3c4c(c5c6ccccc6n2c5c31)CNC4=O` [Lestaurtinib]: the EC50 in assay [1] was 2330 nM.

Consider `COc1cc(N2CCC(N3CCN(C)CC3)CC2)ccc1Nc1ncc(Cl)c(Nc2ccccc2P(C)(C)=O)n1` [Brigatinib], for which the Kd in [2] (read-out: KDapp) was 63 nM; in [3] (read-out: KDapp) it was 118 nM; in assay [4] (read-out: KDapp) it was 494 nM; in assay [5] (read-out: KDapp), 3280 nM. Besides, the EC50 in assay [2] was 170 nM; in assay [3] it was 162 nM; in [4], 1150 nM; in assay [5] it was 3940 nM. Besides, the pKDapp is 7.20 in [2], 6.93 in [3], 6.31 in assay [4] and 5.48 in assay [5].

Take `Nc1ccn([C@@H]2O[C@H](CO)[C@@H](O)C2(F)F)c(=O)n1` [GEM, Gemcitabine]: the EC50 was not below 10 nM in assay [6] (read-out: EC50,GEM), 9.74 nM in assay [6] (read-out: EC50) and 9.77 nM in [6] (read-out: pEC50 (converted)). The Reponse stood at 1159840 in assay [6] (PaTu-8988-T, R1, 13.72 nM); 749200 in assay [6] (PaTu-8988-T, R1, 41.15 nM); 706000 in assay [6] (PaTu-8988-T, R1, […] nM); 666320 in [6] (PaTu-8988-T, R1, 370.37 nM); 670960 in [6] (PaTu-8988-T, R1, 1111.11 nM); 680760 in [6] (PaTu-8988-T, R1, 3333.33 nM). The Reponse worked out at 674680 in assay [6] (PaTu-8988-T, R1, 10000 nM); 1366360 in [6] (PaTu-8988-T, replicate R2, dose 13.72 nM, raw signal); 917320 in [6] (PaTu-8988-T, replicate R2, dose 41.15 nM, raw signal); 868680 in assay [6] (PaTu-8988-T, replicate R2, dose 123.46 nM, raw signal); 808920 in [6] (PaTu-8988-T, replicate R2, dose 370.37 nM, raw signal); 899440 in [6] (PaTu-8988-T, replicate R2, dose 3333.33 nM, raw signal). In addition, the Reponse in assay [6] (PaTu-8988-T, replicate R2, dose 10000 nM, raw signal) turned out to be 809960. Moreover, the Curve bottom in assay [6] (PaTu-8988-T, GEM curve fit) turned out to be 0.31. Besides, the Curve effect size in [6] (PaTu-8988-T, GEM curve fit) is 0.68. In assay [6] (PaTu-8988-T, GEM curve fit), the Curve slope is 2.40. In [6] (PaTu-8988-T, GEM curve fit), the Curve top is recorded as 0.96. For the same compound, in assay [6] (PaTu-8988-T, GEM curve fit, in %), the AUC is on record as 56.98.

In the case of `Nc1nn2cc(F)cnc2c1C(=O)Nc1cncc(F)c1N1CCC(C(=O)N2CCN(C3COC3)CC2)CC1` [Gartisertib], the Kd in assay [7] and in assay [8] was less than 10 nM throughout.

With `CNCc1ccc(-c2cc(-c3nc(-c4ccc(S(=O)(=O)C(C)C)cc4)cnc3N)on2)cc1` [Berzosertib], the Kd in assay [9] (AsPC-1 lysate, read-out: KDapp) was 19.3 nM; in [10] (AsPC-1 lysate, read-out: KDapp), 0.83 nM; in assay [11], less than 1 nM; in assay [12] (AsPC-1 lysate, read-out: KDapp) it was 19.9 nM; in assay [13] (AsPC-1 lysate, read-out: KDapp) it was 219 nM; in assay [14] it was more than 10 nM. Also, the EC50 in assay [9] (setting [15]) is 36.7 nM; in [10] (setting [15]), 2.11 nM; in assay [12] (setting [15]), 35.7 nM; in assay [13] (setting [15]), 406 nM.

Source of the values: paper PMC11876601 (Molecular Systems Biology, 2025).
